Test results published in ChEMBL document CHEMBL5214952, “Unique iminotetrahydroberberine-corbelled metronidazoles as potential membrane active broad-spectrum antibacterial agents” (Bioorg Med Chem Lett, 2022).
pIC50: −log10 of the molar value. Converted amounts (≈) assume the structure as drawn. The source made the active and inactive calls. No cut-off for these calls is given here.

Experiments:
Acinetobacter baumannii = experiment: Antibacterial activity against Acinetobacter baumannii assessed as inhibition of bacterial growth by CLSI based continuous dilution method; format: functional
Escherichia coli [1] = experiment: Antibacterial activity against Escherichia coli ATCC 25922 assessed as inhibition of bacterial growth by CLSI based continuous dilution method; format: functional
Staphylococcus aureus [2] = experiment: Antibacterial activity against methicillin-resistant Staphylococcus aureus assessed as inhibition of bacterial growth by CLSI based continuous dilution method; format: functional
Staphylococcus aureus [3] = experiment: Antibacterial activity against Staphylococcus aureus ATCC 25923 assessed as inhibition of bacterial growth by CLSI based continuous dilution method; format: functional
Klebsiella pneumoniae = experiment: Antibacterial activity against Klebsiella pneumoniae assessed as inhibition of bacterial growth by CLSI based continuous dilution method; format: functional
Pseudomonas aeruginosa [4] = experiment: Antibacterial activity against Pseudomonas aeruginosa ATCC 27853 assessed as inhibition of bacterial growth by CLSI based continuous dilution method; format: functional
Aspergillus fumigatus = experiment: Antifungal activity against Aspergillus fumigatus assessed as inhibition of fungal growth by CLSI based continuous dilution method; format: functional, organism-based
Enterococcus faecalis = experiment: Antibacterial activity against Enterococcus faecalis assessed as inhibition of bacterial growth by CLSI based continuous dilution method; format: functional
Escherichia coli [5] = experiment: Antibacterial activity against Escherichia coli assessed as inhibition of bacterial growth by CLSI based continuous dilution method; format: functional
Pseudomonas aeruginosa [6] = experiment: Antibacterial activity against Pseudomonas aeruginosa assessed as inhibition of bacterial growth by CLSI based continuous dilution method; format: functional
Staphylococcus aureus [7] = experiment: Antibacterial activity against Staphylococcus aureus assessed as inhibition of bacterial growth by CLSI based continuous dilution method; format: functional
Staphylococcus aureus [8] = experiment: Antibacterial activity against Staphylococcus aureus ATCC 29213 assessed as inhibition of bacterial growth by CLSI based continuous dilution method; format: functional
Pseudomonas aeruginosa [9] = experiment: Induction of drug resistance in Pseudomonas aeruginosa assessed as fold increase in MIC measured after 11 passages; format: functional
Pseudomonas aeruginosa [10] = experiment: Induction of drug resistance in Pseudomonas aeruginosa assessed as reduction in susceptibility measured after 6 passages; format: functional
Cell membrane [11] = experiment: Disruption of membrane integrity in Pseudomonas aeruginosa assessed as reduction in intact bacterial cells by measuring reduction in fluorescence intensity at 0.5 to 8 times MIC by calcein-AM dye based assay
[12] = Cytotoxicity against human HepG2 cells assessed as cell viability at 1 times MIC relative to control; format: toxicity, cell-based; conditions: read-out: Activity
Cell membrane [13] = experiment: Induction of outer membrane permeabilization in Pseudomonas aeruginosa assessed as increase in NPN uptake by measuring increase in fluorescence intensity at 0.5 to 8 times MIC by NPN-dye based fluorescence analysis; conditions: DDE = dose-dependent effect
Cell membrane [14] = experiment: Induction of cell membrane permeabilization in Pseudomonas aeruginosa assessed as increase in number of cells with damaged membranes by measuring increase in red fluorescence at 1 times MIC measured for 10 mins by PI staining based fluorescence analysis
Cell membrane [15] = experiment: Disruption of membrane integrity in Pseudomonas aeruginosa assessed as increase in nucleic acid leakage by measuring fold reduction in optical density at 8 times MIC by absorption spectrometry analysis
Pseudomonas aeruginosa [16] = experiment: Induction of […] membrane potential depolarization in Pseudomonas aeruginosa assessed as fold increase in fluorescence intensity at 8 times MIC by DiSC35 dye based fluorescence assay; format: functional
Cell membrane [17] = experiment: Disruption of membrane integrity in Pseudomonas aeruginosa assessed as increase in protein leakage by measuring reduction in fluorescence intensity at 0.5 to 8 times MIC incubated for 6 hrs by bradford assay
Pseudomonas aeruginosa [18] = experiment: Antibiofilm activity against Pseudomonas aeruginosa assessed as reduction in biofilm viability at 8 times MIC by crystal violet staining based assay relative to control; format: functional
Pseudomonas aeruginosa [19] = experiment: Potency index, ratio of Metronidazole MIC to test compound MIC for antibacterial activity against Pseudomonas aeruginosa assessed as inhibition of bacterial growth by CLSI based continuous dilution method; format: functional
Pseudomonas aeruginosa [20] = experiment: Potency index, ratio of norfloxacin MIC to test compound MIC for antibacterial activity against Pseudomonas aeruginosa assessed as inhibition of bacterial growth by CLSI based continuous dilution method; format: functional
Cell membrane [21] = experiment: Induction of inner membrane permeabilization in Pseudomonas aeruginosa assessed as increase in PI uptake by measuring increase in fluorescence intensity at 0.5 to 8 times MIC by propidium iodide staining based fluorescence analysis; conditions: DDE = dose-dependent effect
Pseudomonas aeruginosa [22] = experiment: Antibiofilm activity against Pseudomonas aeruginosa assessed as reduction in biofilm viability at 0.5 to 8 times MIC by crystal violet staining based assay; format: functional, organism-based; conditions: DDE = dose-dependent effect
Pseudomonas aeruginosa [23] = experiment: Potency index, ratio of Berberine MIC to test compound MIC for antibacterial activity against Pseudomonas aeruginosa assessed as inhibition of bacterial growth by CLSI based continuous dilution method; format: functional
[24] = Cytotoxicity against human HepG2 cells assessed as reduction in cell viability; format: toxicity, cell-based

Structure (SMILES)	MIC (Acinetobacter baumannii) [µM]	MIC (Escherichia coli [1]) [µM]	MIC (Staphylococcus aureus [2]) [µM]	MIC (Staphylococcus aureus [3]) [µM]	MIC (Klebsiella pneumoniae) [µM]	MIC (Pseudomonas aeruginosa [4]) [µM]	Activity (Aspergillus fumigatus)	MIC (Enterococcus faecalis) [µM]	MIC (Escherichia coli [5]) [µM]	MIC (Pseudomonas aeruginosa [6]) [µM]	MIC (Staphylococcus aureus [7]) [µM]	MIC (Staphylococcus aureus [8]) [µM]	other results
CCCCCO/N=C/c1cc(OC)c(OCC(O)Cn2c([N+](=O)[O-])cnc2C)c2c1CC1c3cc4c(cc3CCN1C2)OCO4 (centres undefined)	206 (≈ 128 µg/mL)	206 (≈ 128 µg/mL)	824 (≈ 512 µg/mL)	824 (≈ 512 µg/mL)	824 (≈ 512 µg/mL)	824 (≈ 512 µg/mL)	Active	824 (≈ 512 µg/mL)	824 (≈ 512 µg/mL)	824 (≈ 512 µg/mL)	824 (≈ 512 µg/mL)	824 (≈ 512 µg/mL)	
COc1cc(/C=N/OC(C)(C)C)c2c(c1OCC(O)Cn1c([N+](=O)[O-])cnc1C)CN1CCc3cc4c(cc3C1C2)OCO4 (centres undefined)	211 (≈ 128 µg/mL)	211 (≈ 128 µg/mL)	52 (≈ 31.6 µg/mL)	52 (≈ 31.6 µg/mL)	52 (≈ 31.6 µg/mL)	52 (≈ 31.6 µg/mL)	Active	211 (≈ 128 µg/mL)	422 (≈ 256 µg/mL)	211 (≈ 128 µg/mL)	105 (≈ 63.8 µg/mL)	211 (≈ 128 µg/mL)	
CCn1cc(C(=O)O)c(=O)c2cc(F)c(N3CCNCC3)cc21 [NORFLOXACIN]	25 (≈ 7.98 µg/mL)	25 (≈ 7.98 µg/mL)	25 (≈ 7.98 µg/mL)	100 (≈ 31.9 µg/mL)	25 (≈ 7.98 µg/mL)	12 (≈ 3.83 µg/mL)		6 (≈ 1.92 µg/mL)	50 (≈ 16 µg/mL)	50 (≈ 16 µg/mL)	25 (≈ 7.98 µg/mL)	3 (≈ 0.958 µg/mL)	fold change (FC) (Pseudomonas aeruginosa [9]): 8; Activity (Pseudomonas aeruginosa [10]): Active
CCO/N=C/c1cc(OC)c(OCC(O)Cn2c([N+](=O)[O-])cnc2C)c2c1CC1c3cc4c(cc3CCN1C2)OCO4 (centres undefined)	883 (≈ 512 µg/mL)	883 (≈ 512 µg/mL)	883 (≈ 512 µg/mL)	883 (≈ 512 µg/mL)	883 (≈ 512 µg/mL)	883 (≈ 512 µg/mL)	Active	883 (≈ 512 µg/mL)	883 (≈ 512 µg/mL)	883 (≈ 512 µg/mL)	883 (≈ 512 µg/mL)	883 (≈ 512 µg/mL)	
CCCO/N=C/c1cc(OC)c(OCC(O)Cn2c([N+](=O)[O-])cnc2C)c2c1CC1c3cc4c(cc3CCN1C2)OCO4 (centres undefined)	863 (≈ 512 µg/mL)	215 (≈ 128 µg/mL)	863 (≈ 512 µg/mL)	215 (≈ 128 µg/mL)	863 (≈ 512 µg/mL)	863 (≈ 512 µg/mL)	Active	863 (≈ 512 µg/mL)	863 (≈ 512 µg/mL)	863 (≈ 512 µg/mL)	863 (≈ 512 µg/mL)	863 (≈ 512 µg/mL)	
CCCCCCO/N=C/c1cc(OC)c(OCC(O)Cn2c([N+](=O)[O-])cnc2C)c2c1CC1c3cc4c(cc3CCN1C2)OCO4 (centres undefined)	805 (≈ 512 µg/mL)	805 (≈ 512 µg/mL)	805 (≈ 512 µg/mL)	50 (≈ 31.8 µg/mL)	805 (≈ 512 µg/mL)	805 (≈ 512 µg/mL)	Active	805 (≈ 512 µg/mL)	805 (≈ 512 µg/mL)	805 (≈ 512 µg/mL)	805 (≈ 512 µg/mL)	805 (≈ 512 µg/mL)	
C=CCO/N=C/c1cc(OC)c(OCC(O)Cn2c([N+](=O)[O-])cnc2C)c2c1CC1c3cc4c(cc3CCN1C2)OCO4 (centres undefined)	216 (≈ 128 µg/mL)	216 (≈ 128 µg/mL)	54 (≈ 31.9 µg/mL)	54 (≈ 31.9 µg/mL)	54 (≈ 31.9 µg/mL)	54 (≈ 31.9 µg/mL)	Active	216 (≈ 128 µg/mL)	433 (≈ 256 µg/mL)	216 (≈ 128 µg/mL)	108 (≈ 63.9 µg/mL)	216 (≈ 128 µg/mL)	
COc1cc(/C=N/OCc2ccccc2)c2c(c1OCC(O)Cn1c([N+](=O)[O-])cnc1C)CN1CCc3cc4c(cc3C1C2)OCO4 (centres undefined)	24 (≈ 15.4 µg/mL)	99 (≈ 63.5 µg/mL)	49 (≈ 31.4 µg/mL)	24 (≈ 15.4 µg/mL)	24 (≈ 15.4 µg/mL)	199 (≈ 128 µg/mL)	Active	49 (≈ 31.4 µg/mL)	24 (≈ 15.4 µg/mL)	24 (≈ 15.4 µg/mL)	49 (≈ 31.4 µg/mL)	49 (≈ 31.4 µg/mL)	Activity (Cell membrane [11]): Active; viability at 1 times MIC [12]: > 80%; Activity (Cell membrane [13]): Dde; Activity (Cell membrane [14]): Active; fold change (FC) (Cell membrane [15]): 0.1; fold change (FC) (Pseudomonas aeruginosa [16]): 4; Activity (Cell membrane [17]): Active; Activity (Pseudomonas aeruginosa [18]): 46.4%; Ratio (Pseudomonas aeruginosa [19]): 62; Ratio (Pseudomonas aeruginosa [20]): 2; Activity (Cell membrane [21]): Dde; Activity (Pseudomonas aeruginosa [22]): Dde; Ratio (Pseudomonas aeruginosa [23]): 63; pIC50 [24]: < 4.30
Cc1ncc([N+](=O)[O-])n1CCO [METRONIDAZOLE]	1500 (≈ 256 µg/mL)	1500 (≈ 256 µg/mL)	1500 (≈ 256 µg/mL)	1500 (≈ 256 µg/mL)	374 (≈ 64 µg/mL)	1500 (≈ 256 µg/mL)		748 (≈ 128 µg/mL)	1500 (≈ 256 µg/mL)	1500 (≈ 256 µg/mL)	1500 (≈ 256 µg/mL)	1500 (≈ 256 µg/mL)	
COc1cc(/C=N/O)c2c(c1OCC(O)Cn1c([N+](=O)[O-])cnc1C)CN1CCc3cc4c(cc3C1C2)OCO4 (centres undefined)	58 (≈ 32 µg/mL)	29 (≈ 16 µg/mL)	116 (≈ 64 µg/mL)	58 (≈ 32 µg/mL)	464 (≈ 256 µg/mL)	58 (≈ 32 µg/mL)	Active	29 (≈ 16 µg/mL)	15 (≈ 8.27 µg/mL)	116 (≈ 64 µg/mL)	58 (≈ 32 µg/mL)	232 (≈ 128 µg/mL)	
CCCCO/N=C/c1cc(OC)c(OCC(O)Cn2c([N+](=O)[O-])cnc2C)c2c1CC1c3cc4c(cc3CCN1C2)OCO4 (centres undefined)	843 (≈ 512 µg/mL)	843 (≈ 512 µg/mL)	843 (≈ 512 µg/mL)	843 (≈ 512 µg/mL)	843 (≈ 512 µg/mL)	843 (≈ 512 µg/mL)	Active	843 (≈ 512 µg/mL)	843 (≈ 512 µg/mL)	843 (≈ 512 µg/mL)	843 (≈ 512 µg/mL)	843 (≈ 512 µg/mL)	
CO/N=C/c1cc(OC)c(OCC(O)Cn2c([N+](=O)[O-])cnc2C)c2c1CC1c3cc4c(cc3CCN1C2)OCO4 (centres undefined)	905 (≈ 512 µg/mL)	905 (≈ 512 µg/mL)	905 (≈ 512 µg/mL)	56 (≈ 31.7 µg/mL)	905 (≈ 512 µg/mL)	113 (≈ 63.9 µg/mL)	Active	226 (≈ 128 µg/mL)	905 (≈ 512 µg/mL)	905 (≈ 512 µg/mL)	452 (≈ 256 µg/mL)	905 (≈ 512 µg/mL)	
COc1ccc2cc3[n+](cc2c1OC)CCc1cc2c(cc1-3)OCO2 [BERBERINE]	190	380	761	380	190	380		380	380	1520	380	190	
